Results: US20240082221A1, “COMPOSITIONS AND METHODS FOR THE IDENTIFICATION OF COMPOUNDS THAT PROTECT AGAINST LIPOFUSCIN CYTOTOXICITY” (priority 2021, published 2024)

What was measured:
human MLKL = test: Western blot of Ser358 phospho-MLKL, phosphorylation and polymerization of MLKL; assay type: cell-based; conditions: non-reducing conditions, cells with A2E/ATRD
Experimental: Immunoblotting. Total cell lysates were extracted using RIPA lysis buffer (50 mM TrisHCl, Ph 8.0, 150 mM NaCl, 1% NP40, 0.5% Sodium Deoxycholate, 0.1% SDS, protease-phosphatase inhibitor) after the incubation of the specific sample group in a 48 well plate. Sonication or syringing (20 times) was done followed by centrifugation at 12,000×g for 10 mins and the supernatant was collected and stored in −80° C. Proten concentration from homogenates were assessed by Pierce Rapid Gold BCA protein assay kit (ThermoFisher Scientific, cat.no. A53225). Then 30 μg of protein was analyzed by standard SDS-PAGE gel. Samples were mixed 4:1 (v:v) with Nupage loading buffer with or without 8% 0-mercaptoethanol and heated for 10 min at 72° C. SDS-PAGE was done using 4-12% Nupage gel and buffer (Life, NP0335BOX). Next, SDS-PAGE gel was transferred to nitrocellulose membrane (Whatman, PROTAN BA83) overnight at 20V. The following day, 5% milk in TBS was used for 2 h blocking the membrane and then primary antibody was added in TBST (TBS, 0.1% Tween-20) for overnight at 4° C. Next day membranes were washed and incubated for 2 hours at room temperature with HRP conjugated secondary antibody (cat #G21234, Invitrogen) at 1:10,000 dilution. After 3 more washed membranes were probed with enhanced chemiluminescence (ECL) reagent and detected using an X-ray films for chemiluminescence image (GE healthcare, RPN2106). Scanning/imaging and quantitation of the image was done using silverfast 8 application software and Fiji Image J. Antibodies for Western blotting were list in FIG. 10.
For its phosphorylation, MLKL and its kinase need to be recruited into multiprotein complexes, known as necrosomes (FIG. 4O). Necrosomes are not well conserved among species and vary also with the nature of the stimuli that triggers their formation. […] Considering that phosphorylation of human MLKL at Ser358 (pMLKL), is a hallmark triggering event and marker of necroptosis, the Ser358-phosphorylation and polymerization status of MLKL in cells with LF was determined. […] A prerequisite for the assembly of these RIP kinases into necrosomes was their phosphorylation.

[1] = tested on: activated microglia/macrophages; test: Intravitreal treatment of DKO mice, subretinal microglia/macrophage infiltration; assay type: in vivo, ABCA4−/− RDH8−/− double knock-out mice (DKO)
Experimental: Animals. Pigmented ABCA4^−/− RDH8^−/− double knock-out mice (DKO), free of rd8 mutation, were purchased from Jackson laboratories and every 10 generations were in house backcrossed to the C57BL6J control strain, to prevent genetic drifts. Genotyping was performed at Transnetyx (Memphis, TN). Only mice with ABCA4, RDH8, RPE65-Leu450 but no crb1 mutations (retinal degeneration slow) were maintained in the colony. Controls C57BL/6J (Rpe65-Leu450, crb1negative) were also Jackson's lab. All mice were housed at Weill Cornell Medicine's animal facility under a 12 h light (˜10 lux)/12 h dark cycle environment or under complete darkness. Experimental manipulations in the dark were done under dim red light transmitted through a Kodak No. 1 safelight filter (transmittance >560 nm). No retinal degeneration or necroptosis markers were appreciably detected in 20 months or older C57BL6/N (Rpe65-Met450, crb1 positive) obtained from the NAI/NIH. All animal procedures and experiments were approved by the Animal Care and Use Committee of Weill Cornell Medical College in agreement with the guidelines established by the NIH Office of Laboratory Animal Welfare and the Association of Research for Vision and Ophthalmology (ARVO) statement for the use of animals in ophthalmic research. […]
Pharmacological treatment of mice. […] The exact volume of Mock reagent or Kira6 was determined by 10 μl Hamilton syringe. […]

[2] = tested on: unfolded protein response (UPR) pathway; test: RNAseq / Ingenuity Pathway Analysis of cells with dark LF cytotoxicity; assay type: cell-based, Human; conditions: cells with dark LF cytotoxicity vs cells rescued by treatment
Experimental: RNAseq. Cultured ARPE19 cells were treated with or without 15 uM A2E for 24 hours, then cells were harvested and total RNA extracted. […]. RNAseq profiles were analyzed further with Ingenuity Pathway Analysis (IPA, Qiagen).
To investigate the cellular processes leading to necroptosis, Ingenuity Pathway Analysis (IPA) was used to compare the transcriptomes of cells suffering of dark LF cytotoxicity with cells rescued by Nec7 treatment. […] The UPR is a conserved transcriptional response to the aberrant accumulation of misfolded proteins or lipids in the endoplasmic reticulum. UPR is elicited by three ER-resident sensors: PERK, IRE1α and […]. […] To evaluate the impact of UPR downregulation, the list of UPR transcripts inhibited by Nec7 was extracted and a new IPA analysis was performed for the downstream consequences (FIG. 5D).

Row | Structure (SMILES) | effect on LF-induced phosphorylation and polymerization of MLKL (human MLKL) | Iba-1+ cells attached to the apical side of RPE ([1]; RPE-flat mounts, center to periphery) | infiltration of CD11b cells in the subretinal space ([1]; RPE-flat mounts from 25- to 27-month-old DKO mice) | transcriptome pathway variation induced by treatment (IPA) [2]
1 | CC(C)(C)c1nc(-c2ccc(NC(=O)Nc3cccc(C(F)(F)F)c3)c3ccccc23)c2c(N)nccn12 [KIRA6] | prevents phosphorylation and polymerization of MLKL | No Iba-1+ cells were detected |  | 
2 | N=C1S/C(=C\c2cn[nH]c2-c2ccc(F)cc2)C(=O)N1c1nccs1 [Nec7, Necrostatin 7] | reduced LF-induced phosphorylation and polymerization of MLKL |  | reduced the infiltration of CD11b cells | inhibition of the unfolded protein response (UPR)
